Measured values reported in patent US20240324595A1, “HERBICIDAL COMPOSITIONS” (SYNGENTA CROP PROTECTION AG, priority 2021, published 2024).

Assays:
Assay type in all cases: in vivo
[1] = test system: Echinochloa crus-gali (ECHCG); test: Post-emergence efficacy, Echinochloa crus-gali
Source text: (§1) When active ingredients are combined, the activity to be expected (E) for any given active ingredient combination obeys the so-called Colby Formula and can be calculated as follows (Colby, S. R., Calculating synergistic and antagonistic responses of herbicide combination, Weeds, Vol. 15, pages 20-22; 1967): • ppm=milligrams of active ingredient (a.i.) per litre • X=% action by first active ingredient using p ppm of the active ingredient • Y=% action by second active ingredient using q ppm of the active ingredient.
(§2) According to Colby, the expected action of active ingredients A+B using p+q ppm of active ingredient is represented by the following formula: […]
(§3) If the action actually observed (O) is greater than the expected action E then the action of the combination is super-additive, i.e. there is a synergistic effect. In mathematical terms, synergism corresponds to a positive value for the difference of (O−E). In the case of purely complementary addition of activities (expected activity), said difference (O−E) is zero. A negative value of said difference (O−E) signals a loss of activity compared to the expected activity.
(§4) The efficacy of various compositions of the present invention were tested against plants including the following species: Amaranthus retroflexus (AMARE) Cenchrus echinatus (CCHEC), Echinochloa crus-gali (ECHCG), Eleusine indica (ELEIN), Setaria faberi (SETFA) Sorghum halapense (SORHA) and Digitaria insularis (TRCIN). The compositions are applied post-emergence, and the tests evaluated at certain days-after-application (DAA) as indicated. The tests were evaluated (100=total damage to plant; 0=no damage to plant), and the results are shown below in tables B1 to B13.

[2] = test system: Sorghum halapense (SORHA); test: Post-emergence efficacy, Sorghum halapense; conditions: 15 DAA
Source text: as §1, §2, §3, §4

[3] = test system: Amaranthus retroflexus (AMARE); test: Post-emergence efficacy, Amaranthus retroflexus; conditions: 13 DAA
Source text: as §1, §2
If the action actually observed (O) is greater than the expected action E then the action of the combination is super-additive, i.e. there is a synergistic effect. […]
as §4

Eleusine indica (ELEIN) = test: Post-emergence efficacy, Eleusine indica; conditions: 15 DAA
Source text: as §1, §2, §3, §4

[4] = test system: Digitaria insularis (TRCIN); test: Post-emergence efficacy, Digitaria insularis
Source text: as §1, §2, §3, §4

Setaria faberi (SETFA) = test: Post-emergence efficacy, Setaria faberi; conditions: 15 DAA
Source text: as §1, §2, §3, §4

[5] = test system: Cenchrus echinatus (CCHEC); test: Post-emergence efficacy, Cenchrus echinatus; conditions: 14 DAA
Source text: as §1, §2, §3, §4

With `COC(=O)CCNC(=O)C(C)Sc1cc(-n2c(=O)cc(C(F)(F)F)n(C)c2=O)c(F)cc1Cl` (stereo not drawn) [Compound B3j, tiafenacil, reference compound] the “Observed (100=total damage to plant; 0=no damage)” value ([1]; Table B10, POST, 15 DAA, rate 8 g/ha) was 40 and the “Observed (100=total damage to plant; 0=no damage)” value ([1]; Table B10, POST, 15 DAA, rate 16 g/ha) was 55.
`Cc1nn(-c2cc(NS(C)(=O)=O)c(Cl)cc2Cl)c(=O)n1C(F)F` [Compound B3i, sulfentrazone, reference compound] was tested, and the “Observed (100=total damage to plant; 0=no damage)” value ([2]; rate 60 g/ha) was 13.
With `C#CCN1C(=O)C(F)(F)Oc2cc(F)c(-n3c(=O)n(C)c(=S)n(C)c3=O)cc21` [Compound B3k, trifludimoxazin, reference compound] the “Observed (100=total damage to plant; 0=no damage)” value ([1]; Table B11, POST, 20 DAA, rate 4 g/ha) was 38 and the “Observed (100=total damage to plant; 0=no damage)” value ([1]; Table B11, POST, 20 DAA, rate 30 g/ha) was 31.
In the case of `CC#Cc1ccc(C2=C(OC(=O)OC)C3CCC(C3)C2=O)c(OC)c1` (stereo not drawn) [Ic], the “Observed (100=total damage to plant; 0=no damage)” value ([3]; rate 7.5 g/ha) is reported as 4, the “Observed (100=total damage to plant; 0=no damage)” value (Eleusine indica (ELEIN); rate 12.5 g/ha) is reported as 72 and the “Observed (100=total damage to plant; 0=no damage)” value (Eleusine indica (ELEIN); rate 25 g/ha (Ic)) is reported as 79. For the same molecule, the “Observed (100=total damage to plant; 0=no damage)” value ([4]; POST, 14 DAA, rate 100 g/ha) was 5, the “Observed (100=total damage to plant; 0=no damage)” value ([4]; POST, 16 DAA, rate 3.125 g/ha) was 15 and the “Observed (100=total damage to plant; 0=no damage)” value ([4]; Table B8, POST, 14 DAA, rate 0.47 g/ha) was 0. The “Observed (100=total damage to plant; 0=no damage)” value ([4]; Table B8, POST, 14 DAA, rate 0.94 g/ha) was 0, the “Observed (100=total damage to plant; 0=no damage)” value ([4]; Table B8, POST, 14 DAA, rate 1.88 g/ha) was 11 and the “Observed (100=total damage to plant; 0=no damage)” value (Setaria faberi (SETFA); rate 3 g/ha) was 10. For the same molecule, the “Observed (100=total damage to plant; 0=no damage)” value (Setaria faberi (SETFA); rate 6 g/ha) was 29, the “Observed (100=total damage to plant; 0=no damage)” value ([5]; rate 3 g/ha) was 50 and the “Observed (100=total damage to plant; 0=no damage)” value ([5]; rate 6 g/ha) was 72. The “Observed (100=total damage to plant; 0=no damage)” value ([5]; rate 12.5 g/ha) was 79, the “Observed (100=total damage to plant; 0=no damage)” value ([5]; rate 25 g/ha) was 79 and the “Observed (100=total damage to plant; 0=no damage)” value ([2]; rate 3.125 g/ha) was 28. The “Observed (100=total damage to plant; 0=no damage)” value ([2]; rate 6.25 g/ha) was 45, the “Observed (100=total damage to plant; 0=no damage)” value ([2]; rate 12.5 g/ha) was 75 and the “Observed (100=total damage to plant; 0=no damage)” value ([1]; Table B7, POST, 20 DAA, rate 3.125 g/ha) was 14. For the same molecule, the “Observed (100=total damage to plant; 0=no damage)” value ([1]; Table B7, POST, 20 DAA, rate 25 g/ha) was 87, the “Observed (100=total damage to plant; 0=no damage)” value ([1]; Table B10, POST, 15 DAA, rate 3.125 g/ha) was 45 and the “Observed (100=total damage to plant; 0=no damage)” value ([1]; Table B10, POST, 15 DAA, rate 6.25 g/ha) was 50. The “Observed (100=total damage to plant; 0=no damage)” value ([1]; Table B10, POST, 15 DAA, rate 12.5 g/ha) was 60, the “Observed (100=total damage to plant; 0=no damage)” value ([1]; Table B11, POST, 20 DAA, rate 3.125 g/ha) was 14 and the “Observed (100=total damage to plant; 0=no damage)” value ([1]; Table B12, POST, 13 DAA, rate 0.94 g/ha (Ic)) was 3. For the same molecule, the “Observed (100=total damage to plant; 0=no damage)” value ([1]; Table B12, POST, 13 DAA, rate 1.88 g/ha) was 24, the “Observed (100=total damage to plant; 0=no damage)” value ([1]; Table B12, POST, 13 DAA, rate 7.5 g/ha) was 54 and the “Observed (100=total damage to plant; 0=no damage)” value ([1]; Table B13, POST, 15 DAA, rate 3.125 g/ha) was 45. The “Observed (100=total damage to plant; 0=no damage)” value ([1]; Table B13, POST, 15 DAA, rate 6.25 g/ha) was 50 and the “Observed (100=total damage to plant; 0=no damage)” value ([1]; Table B13, POST, 15 DAA, rate 12.5 g/ha) was 60.
With `C#CCN1C(=O)COc2cc(F)c(N3C(=O)C4=C(CCCC4)C3=O)cc21` [Compound B3d, flumioxazin, reference compound] the “Observed (100=total damage to plant; 0=no damage)” value ([1]; Table B7, POST, 20 DAA, rate 4 g/ha) was 8 and the “Observed (100=total damage to plant; 0=no damage)” value ([1]; Table B7, POST, 20 DAA, rate 15 g/ha) was 49.
In the case of `CCOC(=O)C1(C)CC(c2cc(-n3c(=O)cc(C(F)(F)F)n(C)c3=O)c(F)cc2Cl)=NO1` (stereo not drawn) [Compound B3l, 3-(2-chloro-4-fluoro-5-(3-methyl-2,6-dioxo-4-trifluoromethyl-3,6-dihydropyrimidin-1(2H)-yl)phenyl)-5-methyl-4,5-dihydroisoxazole-5-carboxylic acid ethyl ester, reference compound], the “Observed (100=total damage to plant; 0=no damage)” value ([1]; Table B12, POST, 13 DAA, rate 0.94 g/ha (B3l)) is reported as 33 and the “Observed (100=total damage to plant; 0=no damage)” value ([1]; Table B12, POST, 13 DAA, rate 3.75 g/ha) is reported as 73.
`CCOC(=O)COc1ncccc1Oc1cc(-n2c(=O)cc(C(F)(F)F)n(C)c2=O)c(F)cc1Cl` [Compound B3c, epyrifenacil, reference compound] was tested, and the “Observed (100=total damage to plant; 0=no damage)” value (Eleusine indica (ELEIN); rate 25 g/ha (B3c)) was 16 and the “Observed (100=total damage to plant; 0=no damage)” value ([4]; POST, 16 DAA, rate 1 g/ha) was 33.
For `O=C(O)CNCP(=O)(O)O` [Compound B2c, glyphosate, reference compound], the “Observed (100=total damage to plant; 0=no damage)” value ([5]; rate 125 g/ha) was 1.
In the case of `CCOC(=O)C(Cl)Cc1cc(-n2nc(C)n(C(F)F)c2=O)c(F)cc1Cl` (stereo not drawn) [Compound B3b, carfentrazone-ethyl, reference compound], the “Observed (100=total damage to plant; 0=no damage)” value ([3]; rate 3.75 g/ha) is reported as 75.
`O=C(O)CC[n+]1ccc(-c2cccnn2)cn1.[Cl-]` [Compound B4c.27] was tested, and the “Observed (100=total damage to plant; 0=no damage)” value (Setaria faberi (SETFA); rate 37.5 g/ha) was 37.
In the case of `CS(=O)(=O)NC(=O)c1cc(Oc2ccc(C(F)(F)F)cc2Cl)ccc1[N+](=O)[O-]` [Compound B3e, fomesafen, reference compound], the “Observed (100=total damage to plant; 0=no damage)” value ([4]; Table B8, POST, 14 DAA, rate 7.5 g/ha) is reported as 15, the “Observed (100=total damage to plant; 0=no damage)” value ([4]; Table B8, POST, 14 DAA, rate 15 g/ha) is reported as 20 and the “Observed (100=total damage to plant; 0=no damage)” value ([4]; Table B8, POST, 14 DAA, rate 30 g/ha) is reported as 35.
With `CP(=O)(O)CC[C@H](N)C(=O)O` [Compound B1c, L-glufosinate/glufosinate-P, reference compound] the “Observed (100=total damage to plant; 0=no damage)” value ([4]; POST, 14 DAA, rate 600 g/ha) was 60.
For `c1cc[n+]2c(c1)-c1cccc[n+]1CC2` [Compound B4b1, diquat dibromide, reference compound], the “Observed (100=total damage to plant; 0=no damage)” value ([1]; Table B13, POST, 15 DAA, rate 60 g/ha) was 43.
